The values below come from the Biogen ADME set (Fang et al. 2023).

For this data set the following is noted: for aqueous solubility: pH 6.8.

In brackets after ≈: the same amount, converted by molar mass. Bounds are passed on as bounds.

As for `Cc1nccc(N(C)Cc2ccc(N)nc2)n1`, the MDR1-MDCK efflux ratio was 4.39; the intrinsic clearance, human liver microsomes was at most 0.284 L/h/kg; the intrinsic clearance, rat liver microsomes is at most 0.64 L/h/kg.

`O=C(Nc1ccc2c3c(cccc13)CC2)c1ccnc(-n2cncn2)c1`: the MDR1-MDCK efflux ratio worked out at 0.25; the intrinsic clearance, human liver microsomes was 7.42 L/h/kg; the intrinsic clearance, rat liver microsomes was 9.85 L/h/kg; the aqueous solubility worked out at 0.0107 mg/mL (≈ 31.4 µM).

For the compound `CCc1ccc(S(=O)(=O)NCc2ccnc(N3CCCC3)n2)cc1`, the MDR1-MDCK efflux ratio was found to be 0.891; the intrinsic clearance, human liver microsomes came out at 18.7 L/h/kg; the intrinsic clearance, rat liver microsomes is 123 L/h/kg; the aqueous solubility worked out at 0.0677 mg/mL (≈ 195 µM).

For `CC(=O)Nc1cnn(CC2CCN(C)CC2)c1`, the MDR1-MDCK efflux ratio was 3.56; the intrinsic clearance, human liver microsomes is at most 0.284 L/h/kg; the intrinsic clearance, rat liver microsomes was at most 0.64 L/h/kg; the aqueous solubility came to 0.0235 mg/mL (≈ 99.4 µM).

With `CN(c1ncccc1CNc1nc(Nc2ccc3c(c2)CC(=O)N3)ncc1C(F)(F)F)S(C)(=O)=O`, the intrinsic clearance, human liver microsomes worked out at 1.93 L/h/kg; the intrinsic clearance, rat liver microsomes worked out at 5.67 L/h/kg; the aqueous solubility is 0.0944 mg/mL (≈ 186 µM).

On to `Cc1ccc(-c2cnn3c(O)cc(Cn4cccn4)nc23)cc1`, for which the MDR1-MDCK efflux ratio is 2.46; the intrinsic clearance, human liver microsomes is 1.1 L/h/kg; the intrinsic clearance, rat liver microsomes was 13.5 L/h/kg.

Regarding `Cn1ccc(C(=O)N2CCCC(c3cccc(-c4cccc(Cl)c4)n3)C2)n1` (stereo unspecified), the MDR1-MDCK efflux ratio was 0.822; the intrinsic clearance, human liver microsomes came to 3.78 L/h/kg; the intrinsic clearance, rat liver microsomes turned out to be 40.2 L/h/kg; the aqueous solubility came out at 0.0267 mg/mL (≈ 70.1 µM).

Regarding `O=C(c1ccncc1)N1CCC(c2cnccn2)CC1`, the MDR1-MDCK efflux ratio stood at 2.71; the intrinsic clearance, human liver microsomes was at most 0.284 L/h/kg; the intrinsic clearance, rat liver microsomes is at most 0.64 L/h/kg; the aqueous solubility is 0.0612 mg/mL (≈ 228 µM).

With `N#Cc1cnn(-c2nc(-c3ccc(Br)s3)cs2)c1N`, the aqueous solubility came to 0.0019 mg/mL (≈ 5.39 µM).

Compound `CCCNC(=O)NS(=O)(=O)c1ccc(Cl)cc1` yielded a fraction unbound, human plasma of 0.0933; a fraction unbound, rat plasma of 0.0425; an intrinsic clearance, human liver microsomes of at most 0.284 L/h/kg; an intrinsic clearance, rat liver microsomes of 0.909 L/h/kg.

Take `Cc1noc(NCc2cccc(-c3cccnc3)c2)n1`: the MDR1-MDCK efflux ratio was 0.752; the intrinsic clearance, human liver microsomes was 1.23 L/h/kg; the intrinsic clearance, rat liver microsomes is 9.4 L/h/kg; the aqueous solubility was 0.0346 mg/mL (≈ 130 µM).

With `CCN1CCN(c2ccc(NC(=O)c3ncoc3-c3ccc4ccccc4c3)cc2)CC1`, the intrinsic clearance, human liver microsomes amounted to 1.15 L/h/kg; the intrinsic clearance, rat liver microsomes worked out at 17.8 L/h/kg; the aqueous solubility turned out to be 0.00102 mg/mL (≈ 2.39 µM).

Take `c1ccc(-c2n[nH]c(C3CCN(c4cnc5ccccc5n4)CC3)n2)cc1`: the MDR1-MDCK efflux ratio turned out to be 1.2; the intrinsic clearance, human liver microsomes stood at 0.64 L/h/kg; the intrinsic clearance, rat liver microsomes stood at 6.83 L/h/kg; the aqueous solubility was found to be 0.00621 mg/mL (≈ 17.4 µM).

The compound `Cc1nc(-c2ccccc2)c(C(=O)Nc2cc(Cl)cc(Cl)c2)s1` came in with an intrinsic clearance, human liver microsomes of 1.54 L/h/kg and an intrinsic clearance, rat liver microsomes of 13.8 L/h/kg.

Regarding `CN(C)c1ncncc1NC(=O)c1ccc(C(F)(F)F)nc1`, the intrinsic clearance, human liver microsomes is at most 0.284 L/h/kg and the intrinsic clearance, rat liver microsomes was at most 0.64 L/h/kg.

On to `O=C(CC1CCCC1)NCc1ccncc1`, for which the aqueous solubility was found to be 0.058 mg/mL (≈ 266 µM).

For `Cc1cnc(N2CCSCC2)nc1N1CCSCC1`, the MDR1-MDCK efflux ratio is 0.691; the intrinsic clearance, human liver microsomes amounted to 11.6 L/h/kg; the intrinsic clearance, rat liver microsomes turned out to be 158 L/h/kg.

Take `CC(=O)N1CCN(c2ncc(-c3cc(C)no3)c([C@H]3CCCO3)n2)CC1`: the MDR1-MDCK efflux ratio turned out to be 2.44; the intrinsic clearance, human liver microsomes was at most 0.284 L/h/kg; the intrinsic clearance, rat liver microsomes was 1.37 L/h/kg; the aqueous solubility worked out at 0.0686 mg/mL (≈ 192 µM).

On to `Cc1nccc(-c2cccc(-n3ccnc3C(C)C)c2)n1`, for which the MDR1-MDCK efflux ratio was found to be 1.45; the intrinsic clearance, human liver microsomes amounted to 2.13 L/h/kg; the intrinsic clearance, rat liver microsomes came to 30 L/h/kg; the aqueous solubility turned out to be 0.0404 mg/mL (≈ 145 µM).

Regarding `CC(C(=O)Nc1ccccc1)N1CCCN(c2nccs2)CC1` (stereo unspecified), the MDR1-MDCK efflux ratio came to 0.926; the intrinsic clearance, human liver microsomes stood at 27.6 L/h/kg; the intrinsic clearance, rat liver microsomes turned out to be 121 L/h/kg; the aqueous solubility is 0.0372 mg/mL (≈ 112 µM).

For `COc1ccc(CC2CN3CCN(C(=O)OCc4ccccc4)CC3CO2)cc1` (stereo unspecified), the MDR1-MDCK efflux ratio was found to be 0.797; the intrinsic clearance, human liver microsomes worked out at 1.99 L/h/kg; the intrinsic clearance, rat liver microsomes was determined as 51.7 L/h/kg.

As for `CCOC(=O)c1cccnc1SCc1cccnc1`, the MDR1-MDCK efflux ratio amounted to 0.646; the intrinsic clearance, human liver microsomes is 17.6 L/h/kg; the intrinsic clearance, rat liver microsomes came to 75.5 L/h/kg.

In the case of `COc1ccc(-c2nc3cc(C)ccc3cc2CN(C)Cc2nccn2C)cc1`, the MDR1-MDCK efflux ratio came to 4.84; the intrinsic clearance, human liver microsomes was 17.7 L/h/kg; the intrinsic clearance, rat liver microsomes worked out at 150 L/h/kg; the aqueous solubility was found to be 0.018 mg/mL (≈ 46.6 µM).

Regarding `C=CCNc1ncc(-c2cnccn2)c(C2CC2)n1`, the MDR1-MDCK efflux ratio was 0.531; the intrinsic clearance, human liver microsomes turned out to be 0.779 L/h/kg; the intrinsic clearance, rat liver microsomes stood at 44 L/h/kg.

In the case of `Fc1ccc(F)c2c(NCc3ccc(N4CCOCC4)nc3)ccnc12`, the MDR1-MDCK efflux ratio is 1.29; the intrinsic clearance, human liver microsomes turned out to be 2.44 L/h/kg; the intrinsic clearance, rat liver microsomes amounted to 9.05 L/h/kg; the aqueous solubility is 0.0442 mg/mL (≈ 124 µM).

For `C=C1C[C@@H]2[C@H](CC[C@]3(C)C(=O)CC[C@@H]23)[C@@]2(C)C=CC(=O)C=C12`, the MDR1-MDCK efflux ratio amounted to 0.494; the intrinsic clearance, human liver microsomes is at most 0.284 L/h/kg; the intrinsic clearance, rat liver microsomes is at most 0.64 L/h/kg.

As to `Cc1nc(O)c(Cl)c(N(C)CC2CCN(C)CC2)n1`, the MDR1-MDCK efflux ratio turned out to be 7.64; the intrinsic clearance, human liver microsomes was at most 0.284 L/h/kg; the intrinsic clearance, rat liver microsomes was at most 0.64 L/h/kg.

With `O=C(CN1CCCC(c2cccc(-c3cccc(Cl)c3)n2)C1)N1CCCC1` (stereo unspecified), the MDR1-MDCK efflux ratio was determined as 2.16; the intrinsic clearance, human liver microsomes stood at 3.09 L/h/kg; the intrinsic clearance, rat liver microsomes amounted to 25.1 L/h/kg; the aqueous solubility came to 0.0548 mg/mL (≈ 143 µM).

The compound `Cc1nc(CCNc2cnccc2C#N)cs1` displayed an intrinsic clearance, human liver microsomes of 3.34 L/h/kg and an intrinsic clearance, rat liver microsomes of 23.4 L/h/kg.

Consider `CC(C)CN(Cc1cnn(C)c1)C(=O)c1cccc(-c2cnccn2)c1`, for which the MDR1-MDCK efflux ratio is 7.22; the intrinsic clearance, human liver microsomes is 26.9 L/h/kg; the intrinsic clearance, rat liver microsomes stood at 285 L/h/kg.

As to `Clc1ccc(CSc2nc(-c3ccccc3)c[nH]2)cn1`, the MDR1-MDCK efflux ratio is 0.621; the intrinsic clearance, human liver microsomes worked out at 13.8 L/h/kg; the intrinsic clearance, rat liver microsomes is 173 L/h/kg.

As to `CN(C(=O)OC(C)(C)C)c1ccc2ccccc2n1`, the MDR1-MDCK efflux ratio was 0.472 and the aqueous solubility came out at 0.00028 mg/mL (≈ 1.08 µM).

On to `O=C(Nc1nc2ccccc2[nH]1)C1CC(=O)N(c2cccc(C(F)(F)F)c2)C1` (stereo unspecified), for which the aqueous solubility was determined as 0.00082 mg/mL (≈ 2.11 µM).

Turning to `COc1cccc(Cn2cnc3c(c2=O)COCC3)c1Cl`, the MDR1-MDCK efflux ratio stood at 0.9; the intrinsic clearance, human liver microsomes was 0.343 L/h/kg; the intrinsic clearance, rat liver microsomes is 8.28 L/h/kg.

For `Nc1cnn(CC(=O)N2CCCCC2)c1`, the intrinsic clearance, human liver microsomes was at most 0.284 L/h/kg; the intrinsic clearance, rat liver microsomes is at most 0.64 L/h/kg; the aqueous solubility turned out to be 0.0364 mg/mL (≈ 175 µM).

Take `CCc1cc(NCc2cccc(OCCOC)c2)ncn1`: the MDR1-MDCK efflux ratio was found to be 0.827; the intrinsic clearance, human liver microsomes is 0.557 L/h/kg; the intrinsic clearance, rat liver microsomes amounted to 8.87 L/h/kg; the aqueous solubility was 0.0491 mg/mL (≈ 171 µM).

Turning to `O=C(CC[C@@H]1CCCN2CCCC[C@H]12)NCc1ncc(Cl)cn1`, the MDR1-MDCK efflux ratio came to 33.8; the intrinsic clearance, human liver microsomes is at most 0.284 L/h/kg; the intrinsic clearance, rat liver microsomes amounted to 2.26 L/h/kg.

As to `COc1ccc(OC)c(N/C=C2\C(=O)Oc3ccccc3C2=O)c1`, the aqueous solubility was 0.0007 mg/mL (≈ 2.15 µM).

Consider `Cn1nccc1C(=O)NCCc1cc2nc(-c3cccs3)ccn2n1`, for which the intrinsic clearance, human liver microsomes was found to be 4.05 L/h/kg and the intrinsic clearance, rat liver microsomes came out at 33.9 L/h/kg.

With `O=C(Nc1cccc(-c2nncn2C2CC2)c1)c1cc(-n2cnc(C3CC3)c2)ccn1`, the MDR1-MDCK efflux ratio turned out to be 46.4; the fraction unbound, human plasma was found to be 0.0183; the fraction unbound, rat plasma stood at 0.0409; the intrinsic clearance, human liver microsomes was found to be 0.488 L/h/kg. The intrinsic clearance, rat liver microsomes stood at 2.24 L/h/kg and the aqueous solubility amounted to 0.045 mg/mL (≈ 109 µM).

Turning to `N#Cc1c(N2CCCC2)oc2nc3ccccc3nc12`, the aqueous solubility turned out to be 0.0003 mg/mL (≈ 1.14 µM).

For `CC(=O)Nc1ccc(Oc2ncnc3scc(-c4ccccc4)c23)cc1`, the MDR1-MDCK efflux ratio worked out at 0.804; the intrinsic clearance, human liver microsomes stood at 2.34 L/h/kg; the intrinsic clearance, rat liver microsomes came out at 26.3 L/h/kg; the aqueous solubility was 0.0089 mg/mL (≈ 24.6 µM).

Turning to `O=C(Nc1cncc2ccccc12)c1ncccn1`, the MDR1-MDCK efflux ratio amounted to 0.676; the intrinsic clearance, human liver microsomes was found to be 2.26 L/h/kg; the intrinsic clearance, rat liver microsomes turned out to be 0.858 L/h/kg.

For `COc1ccc2ccccc2c1CNC(=O)c1cnc(C2CC2)nc1`, the MDR1-MDCK efflux ratio was found to be 0.645; the intrinsic clearance, human liver microsomes turned out to be 2.02 L/h/kg; the intrinsic clearance, rat liver microsomes was 26.5 L/h/kg; the aqueous solubility turned out to be 0.00512 mg/mL (≈ 15.4 µM).

Turning to `O=C(Nc1ccccc1-n1ccnc1)c1cccs1`, the MDR1-MDCK efflux ratio was 0.74; the intrinsic clearance, human liver microsomes was 0.662 L/h/kg; the intrinsic clearance, rat liver microsomes was 2.35 L/h/kg; the aqueous solubility turned out to be 0.0772 mg/mL (≈ 287 µM).

Turning to `Cc1nc(C2CCNCC2)cc(N(C)C)n1`, the MDR1-MDCK efflux ratio amounted to 4.51; the intrinsic clearance, human liver microsomes is at most 0.284 L/h/kg; the intrinsic clearance, rat liver microsomes was at most 0.64 L/h/kg; the aqueous solubility is 0.0385 mg/mL (≈ 175 µM).

For `Cc1c(C(=O)NCCCN(C)C)sc2ncnc(Nc3ccc(F)cc3OC(C)C)c12`, the MDR1-MDCK efflux ratio was found to be 59.2; the fraction unbound, human plasma amounted to 0.0552; the fraction unbound, rat plasma turned out to be 0.0926; the intrinsic clearance, human liver microsomes was at most 0.284 L/h/kg. This compound showed an intrinsic clearance, rat liver microsomes of 3.14 L/h/kg and an aqueous solubility of 0.0236 mg/mL (≈ 52.9 µM).

In general, aqueous solubility refers to how much of the substance goes into solution per volume. The low end stands for a poorly soluble substance, the high end for a readily soluble substance.
